Measured values as given in article PMC5650142, “GPR40 partial agonists and AgoPAMs: Differentiating effects on glucose and hormonal secretions in the rodent” (PLoS ONE, 2017).
Several values for one entry are separate records, joined by “and”; a condition that tells them apart may be missing. Equal entries are not always repeated.

Test system: GK rats
Test: GK rat chronic efficacy (28 days: glucose, food intake, body weight, GLP-1, GIP, PYY, insulin, glucagon)
Format: in vivo
Set-up: Food Intake Over Time (Fig 3C) / Total Body Weight Change Over Time / Active GLP-1 Levels Over Time: unit not given here
Conditions: for Total Body Weight Change Over Time / Active GLP-1 Levels Over Time / GIP Levels Over Time / PYY Levels Over Time / Plasma Insulin Over Time: GK rats; for GIP Levels Over Time / PYY Levels Over Time: in pg/mL (unit assumed)
Method in brief: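 Daily oral gavage for 28 days, AP1 or AP3 at 30 mg/kg in 0.5% methylcellulose; MK-8666 at 30 mg/kg in feed. Fed glucose, food intake and weight on days 10, 17, 23, 28; glucose, GLP-1, GIP, PYY after 6 h fast, 1 h post dose. Hormones by MSD immunoassay or bead panel.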

Cc1cc(OCCCS(C)(=O)=O)cc(C)c1-c1cccc(COc2cc3c(cn2)[C@H]2[C@@H](C3)[C@@H]2C(=O)O)c1 [MK-8666]
Glucose Over time (S2 File, Fig 2A) (30 mpk, Day 0, individual animals): 167 mg/dL and 165 mg/dL and 192 mg/dL and 168 mg/dL and 160 mg/dL and 197 mg/dL and 172 mg/dL and 183 mg/dL and 169 mg/dL and 161 mg/dL | Food Intake Over Time (Fig 3C) (30 mpk, Day 10): 20.6389 and 19.3556 and 19.3778 and 21 and 18.9 | Glucose Over time (S2 File, Fig 2A) (30 mpk, Day 10, individual animals): 128 mg/dl and 123 mg/dl and 142 mg/dl and 120 mg/dl and 139 mg/dl (2×) and 127 mg/dl and 130 mg/dl and 140 mg/dl and 115 mg/dl | Food Intake Over Time (Fig 3C) (30 mpk, Day 17): 18.0071 and 18.5429 and 17.1786 and 18.0357 and 16.8714 | Glucose Over time (S2 File, Fig 2A) (30 mpk, Day 17, individual animals): 130 mg/dL and 155 mg/dL and 159 mg/dL and 140 mg/dL and 132 mg/dL and 137 mg/dL and 120 mg/dL and 138 mg/dL and 110 mg/dL and 102 mg/dL | Food Intake Over Time (Fig 3C) (30 mpk, Day 23): 18.6833 and 18.8833 and 18.4167 and 19.5083 and 18.1917 | Glucose Over time (S2 File, Fig 2A) (30 mpk, Day 23, individual animals): 129 mg/dL and 132 mg/dL and 148 mg/dL and 138 mg/dL and 131 mg/dL and 124 mg/dL and 143 mg/dL and 144 mg/dL and 119 mg/dL and 122 mg/dL | Food Intake Over Time (Fig 3C) (30 mpk, Day 28): 18.66 and 18.67 and 17.38 and 21.2 and 17.95 | Glucose Over time (S2 File, Fig 2A) (30 mpk, Day 28, individual animals): 130 mg/dL and 128 mg/dL and 147 mg/dL and 122 mg/dL and 143 mg/dL and 136 mg/dL and 123 mg/dL and 135 mg/dL and 131 mg/dL and 116 mg/dL | Fasted glucose on day 28 (Fig 3B) (30 mpk, day 28, fasted, individual animals): 119 and 118 and 107 and 100 and 94 and 104 and 124 and 102 and 96 and 105 | Fed glucose on day 28 (Fig 3B) (30 mpk, day 28, fed, individual animals): 123 and 135 and 131 and 116 and 130 and 128 and 147 and 122 and 143 and 136 | gut hormones (total and active GLP-1, GIP, PYY) (GK rat, 30 mg/kg, 4 weeks of treatment): no effect | Plasma Glucagon (GK rat, 30 mg/kg, 28 days): trend of increasing glucagon on day 28 | body weight (GK rat, 30 mg/kg, 28 days): no effect | fed blood glucose vs vehicle controls (GK rat, 30 mg/kg, 28 days, days 10–28): significant effect on day 28 only | Total Body Weight Change Over Time (30 mpk, Day 0, individual animals (Fig 3D)): 0 | Active GLP-1 Levels Over Time (30 mpk, Day 0, individual animals (Fig 4B), 30 mg/kg): 1.901 and 1.26 and 2.116 and 3.51 and 2.184 and 0.8674 and 1.257 and 2.71 and 1.494 and 1.111 | GIP Levels Over Time (30 mpk, Day 0, individual animals (Fig 4C), 30 mg/kg): 12.65 and 5.7 and 68.06 and 68.73 and 44.75 and 71.88 and 53.28 and 113.97 and 32.85 and 33.08 | PYY Levels Over Time (30 mpk, Day 0, individual animals (Fig 4D), 30 mg/kg): 104.9 and 81.92 and 88.3 and 95.99 and 52.32 and 50.41 and 79.99 and 158.3 and 57.72 and 25.52 | Plasma Insulin Over Time (30 mpk, Day 0, individual animals (Fig 5A), 30 mg/kg): 0.7825 ng/mL and 1.015 ng/mL and 2.348 ng/mL and 1.621 ng/mL and 2.16 ng/mL and 2.5584 ng/mL and 2.141 ng/mL and 1.201 ng/mL and 2.632 ng/mL and 2.493 ng/mL | Total Body Weight Change Over Time (30 mpk, Day 10, individual animals (Fig 3D), 30 mg/kg): 20 and 26 and 18 and 13 and 22 and 3 and 11 and 21 and 12 and 4 | Active GLP-1 Levels Over Time (30 mpk, Day 10, individual animals (Fig 4B), 30 mg/kg): 1.599 and 1.212 and 2.275 and 1.828 and 2.945 and 2.154 and 1.327 and 1.669 and 1.343 and 1.536 | GIP Levels Over Time (30 mpk, Day 10, individual animals (Fig 4C), 30 mg/kg): 39.32 and 74.04 and 79.4 and 80.59 and 90.86 and 47.57 and 50.25 and 47.43 and 58.38 and 34.5 | PYY Levels Over Time (30 mpk, Day 10, individual animals (Fig 4D), 30 mg/kg): 68.18 and 84.22 and 84.94 and 98.89 and 97.3 and 93.71 and 80.17 and 75.96 and 87.42 and 74.37 | Plasma Insulin Over Time (30 mpk, Day 10, individual animals (Fig 5A), 30 mg/kg): 1.605 ng/mL and 1.432 ng/mL and 1.588 ng/mL and 2.061 ng/mL and 1.507 ng/mL and 2.521 ng/mL and 2.104 ng/mL and 0.5711 ng/mL and 1.866 ng/mL and 2.359 ng/mL | Total Body Weight Change Over Time (30 mpk, Day 17, individual animals (Fig 3D), 30 mg/kg): 34 (2×) and 41 and 29 and 32 (2×) and 11 and 22 (2×) and 9 | Active GLP-1 Levels Over Time (30 mpk, Day 17, individual animals (Fig 4B), 30 mg/kg): 0.86 and 0.3 and 1.09 and 0.6 and 0.76 and 1.16 and 0.79 and 0.57 (2×) and 1.44 | GIP Levels Over Time (30 mpk, Day 17, individual animals (Fig 4C), 30 mg/kg): 72.64 and 104.54 and 131.52 and 71.84 and 86.95 and 58.88 and 85.41 and 17.08 and 86.39 and 75.71 | PYY Levels Over Time (30 mpk, Day 17, individual animals (Fig 4D), 30 mg/kg): 84.67 and 106.51 and 99.04 and 75.86 and 81.98 and 124.9 and 74.42 and 49.36 and 77.72 and 64.96 | Plasma Insulin Over Time (30 mpk, Day 17, individual animals (Fig 5A), 30 mg/kg): 2.096 ng/mL and 1.971 ng/mL and 2.299 ng/mL and 1.835 ng/mL and 1.8388 ng/mL and 1.142 ng/mL and 2.593 ng/mL and 0.8411 ng/mL and 2.087 ng/mL and 1.846 ng/mL | Total Body Weight Change Over Time (30 mpk, Day 23, individual animals (Fig 3D), 30 mg/kg): 40 and 50 and 44 and 31 (2×) and 12 and 29 and 38 and 27 and 17 | Total Body Weight Change Over Time (30 mpk, Day 28, individual animals (Fig 3D), 30 mg/kg): 42 (2×) and 59 and 53 and 39 and 16 and 38 and 47 and 36 and 23 | Active GLP-1 Levels Over Time (30 mpk, Day 28, individual animals (Fig 4B), 30 mg/kg): 1.155 and 1.013 and 1.22 and 0.9448 and 0.9241 and 0.9389 and 0.7791 and 1.439 and 1.063 and 0.9152 | GIP Levels Over Time (30 mpk, Day 28, individual animals (Fig 4C), 30 mg/kg): 17.53 and 7.25 and 46.24 and 76.52 and 12.03 and 22.4 and 15.13 and 16.8 and 5.84 | PYY Levels Over Time (30 mpk, Day 28, individual animals (Fig 4D), 30 mg/kg): 66.63 and 94.86 and 108.27 and 72.37 and 63.96 and 49.91 and 49.72 and 83.74 and 62.98 and 45.13 | Plasma Insulin Over Time (30 mpk, Day 28, individual animals (Fig 5A), 30 mg/kg): 1.012 ng/mL and 1.26 ng/mL and 1.45 ng/mL and 2.851 ng/mL and 1.138 ng/mL and 1.638 ng/mL and 1.554 ng/mL and 1.1554 ng/mL and 1.58 ng/mL and 1.305 ng/mL
